The assay relates to PBMC. The experiment in a line: Inhibition of LPS-stimulated TNF-alpha release in human PBMC at 600 ng/ml after 20 hrs by ELISPOT test. The assay is classed as functional, cell-based.

Each structure is given as a SMILES string. The source made the active and inactive calls. The rule behind the calls is not given here.

As for `C[C@@H]1C[C@H]2[C@@H]3CCC4=CC(=O)C=C[C@]4(C)[C@@]3(F)[C@@H](O)C[C@]2(C)[C@@]1(O)C(=O)CO`, the inhibition result is “Active”.

The values above are taken from ChEMBL document CHEMBL3877318, “Cystatin C peptidomimetic derivative with antimicrobial properties as a potential compound against wound infections” (Bioorg Med Chem, 2017).
